Measured values from PMC4569708, “Synergistic activation of human pregnane X receptor by binary cocktails of pharmaceutical and environmental compounds” (Nature Communications, 2015).

Tests used:
PXR LBD = target: T1, PXR LBD (Homo sapiens, UniProt O75469); experiment: Non-denaturing ESI-MS of ligand binding
T1 construct: Purified PXR(130-434)-SRC-1 was dialysed overnight; His6 (N); made in house; host or cells: E. coli BL21(DE3)
T1 sequence (O75469 with tags, fused parts or gaps limits assumed): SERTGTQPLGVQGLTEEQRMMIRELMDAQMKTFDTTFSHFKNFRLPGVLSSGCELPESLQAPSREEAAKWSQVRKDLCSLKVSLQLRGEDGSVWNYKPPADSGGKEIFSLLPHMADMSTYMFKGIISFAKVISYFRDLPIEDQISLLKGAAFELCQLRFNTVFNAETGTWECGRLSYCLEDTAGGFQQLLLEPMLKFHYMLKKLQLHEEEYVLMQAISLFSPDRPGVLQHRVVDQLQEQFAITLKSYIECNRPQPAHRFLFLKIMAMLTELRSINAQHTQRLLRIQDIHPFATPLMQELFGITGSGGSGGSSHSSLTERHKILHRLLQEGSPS
Procedure: Figure 4 Simultaneous binding of EE2 and TNC to PXR. Mass spectrometry analysis. Non-denaturing ESI-MS was used to characterize PXR LBD (10 μM) in (a) the unliganded form or in the presence of (b) EE2 (20 μM), (c) TNC (20 μM), or (d) a mixture of EE2 (20 μM) and TNC (20 μM). *, acetate adducts; $, fortuitous binders 254-324 Da; , fortuitous binder 254 Da; #, non-specific EE2 adducts. TEXT PRINTED IN THE PICTURE: (b) no label printed: 296.4 Da | (c) no label printed: 444.2 Da | (d) no label printed: 740.6 Da DOUBTS OF THE COPYIST ABOUT THIS PICTURE: Panels b, c and d: the drawn structures have no label of their own. The masses in brackets are printed with no measure word and are taken as molecular masses. / Panel d: 740.6 Da is printed under two drawn structures joined by '+', so it belongs to the pair, not to a single substance. / The peak labels of the mass spectra were left out as spectrum annotations of the protein and its complexes: PXR 38,212.5 Da, Theoretical mass 38,217.7 Da, Δ 297 Da, Δ 445 Da and Δ 740 Da.
Mass spectrometry experiments were carried out on an electrospray time-of-flight mass spectrometer (LCT, Waters) equipped with an automated chip-based nanoESI device (Triversa Nanomate, Advion Biosciences). External calibration was done in the positive ion mode over the mass range m/z 500–5,000 using the multiply charged ions produced by 0.5 μM horse heart myoglobin solution diluted in water/acetonitrile 50/50 mixture acidified with 0.5% (v/v) formic acid. Purified PXR(130-434)-SRC1 was buffer exchanged against 50 mM ammonium acetate (NH4Ac), pH 8.0 using NAP5 desalting columns (illustra NAP-5 Columns, GE Healthcare Life Sciences). Protein concentration was determined spectrophotometrically (ɛ280 nm=26,210 l mol^−1 cm^−1). […] Protein concentration was set to 10 μM and different compound concentrations ranging from 20 to 80 μM were tested. Incubations lasted 5 min at 18 °C. Mass spectra were recorded using low cone voltage (Vc, 20 V) and elevated interface pressure (Pi, 5 mbar).

PXR [1] = target: T2, PXR (Homo sapiens, UniProt O75469); experiment: Transactivation assay (dose-response), HG5LN GAL4-PXR-LBD reporter cells; conditions: summary of cell-based assays
T2 sequence (O75469 107-434): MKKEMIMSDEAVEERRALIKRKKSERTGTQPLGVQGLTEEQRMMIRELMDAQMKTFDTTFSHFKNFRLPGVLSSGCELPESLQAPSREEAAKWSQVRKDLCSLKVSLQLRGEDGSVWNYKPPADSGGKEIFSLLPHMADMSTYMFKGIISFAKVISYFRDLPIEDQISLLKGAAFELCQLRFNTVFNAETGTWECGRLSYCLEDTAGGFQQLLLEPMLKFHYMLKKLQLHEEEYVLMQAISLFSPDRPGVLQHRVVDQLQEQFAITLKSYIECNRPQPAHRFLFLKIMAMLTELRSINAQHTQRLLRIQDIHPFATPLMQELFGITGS
Procedure: Compounds to be tested were added 24 h later, and cells were incubated at 37 °C for 16 h. […] EC50 values were measured using GraphPad Prism (GraphPad Software Inc.).

PXR [2] = target: T2, PXR; experiment: Medium-throughput screening, HG5LN GAL4-PXR-LBD reporter cell line (HeLa); conditions: HG5LN GAL4-PXR reporter cells; 3 µM SR12813 = 100% activation; determined prior to the screening
Text: Using medium-throughput ligand screening and a mammalian (HeLa) cell-based activation assay (HG5LN GAL4-PXR-LBD reporter cell line)[14][15], we monitored the agonistic potential of 40 chemicals either alone or in binary mixtures (Supplementary Table 1). […] We next examined the effect of TNC, EE2, and their combination in human liver (HepG2) and colon (LS174T) carcinoma cell lines containing the full-length PXR and the CYP3A4-XREM luciferase reporter plasmids.
LS174T stable human PXR transfectant (LS-PXR2) and the corresponding control cells (LS-CTRL), HEPG2-PXR and HG5LN GAL4-PXR reporter cell lines were previously described. […] HEPG2-PXR was obtained after stable transfection of the same PXR expressing plasmid and the XREM-CYP3A4 pGL3b reporter plasmid. […] Finally, LS174T-PXR reporter cell line was established by stable transfection of the CYP3A4-luciferase-hygromycine plasmid in the LS-PXR2 cell line. All cell lines were grown in DMEM medium (Invitrogen) supplemented with 10% fetal calf serum, L-glutamine, and antibiotics (Invitrogen).
HG5LN GAL4-PXR reporter cell lines (100 μl) were seeded at a density of 25,000 cells per well in 96-well white opaque tissue culture plates (Greiner CellStar). […] Then the ligand to be tested in combination with the different ligands was added (50 μl). Cells were incubated at 37 °C for 16 h. At the end of the incubation period, culture medium was replaced with medium containing 3.10^−4 M luciferin. Luciferase activity was measured for 2 s in intact living cells using a plate reader (PerkinElmer Luminometer).
Supplementary Table 1 | Compounds used for screening
#For each ligand, the concentration used was determined prior to the screening experiment. It represents the dose at which the
synthetized in the laboratory4. **Compounds purchased from Tocris Biosciences. ***Compounds purchased by Sigma
Aldrich.****Gift from Sanofi Aventis. All compound stock solutions were prepared at 10 mM in DMSO.

[3] = target: T3, fluorescein-labelled NR interaction domain (NID) of SRC-1 (residues 570-780) (UniProt Q15788 570-780, fluorescein at the C-terminus (cys-fluor added on intein cleavage)); experiment: FP; EE2
T3 chain: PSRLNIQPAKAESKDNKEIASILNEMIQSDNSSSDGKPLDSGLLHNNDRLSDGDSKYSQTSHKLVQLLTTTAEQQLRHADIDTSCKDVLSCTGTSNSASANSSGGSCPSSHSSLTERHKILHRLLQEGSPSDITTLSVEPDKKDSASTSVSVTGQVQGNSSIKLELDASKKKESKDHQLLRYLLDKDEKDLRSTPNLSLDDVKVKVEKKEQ

[4] = target: T3, fluorescein-labelled NR interaction …; experiment: FP; TNC
[5] = target: T3, fluorescein-labelled NR interaction …; experiment: FP; apo (no ligand)
[6] = target: T3, fluorescein-labelled NR interaction …; experiment: FP; SR12813
[7] = target: T3, fluorescein-labelled NR interaction …; experiment: FP; TNC+EE2

C#C[C@]1(O)CC[C@H]2[C@@H]3CCc4cc(O)ccc4[C@H]3CC[C@@]21C [EE2, 17α-ethinylestradiol, reference compound]
Complex detected (PXR LBD; PXR 10 μM, 2 molar equivalent excess of compound (20 μM)): ~70% | Range of affinity for PXR (PXR LBD; native ESI-MS): low micromolar range | PXR agonism, cell-based assays as a whole (PXR [1]): poor PXR agonists

Clc1ccc(C(c2ccccc2Cl)C(Cl)(Cl)Cl)cc1 (stereo not shown) [2,4’DDT]
Concentration: dose at which the compound alone induces ≈30% of the luciferase expression obtained with 3 µM SR12813 (PXR [2]): 3000 nM

Clc1ccccc1C(c1ccccc1)(c1ccccc1)n1ccnc1 [Clotrimazol, reference compound]
Concentration: dose at which the compound alone induces ≈30% of the luciferase expression obtained with 3 µM SR12813 (PXR [2]): 300 nM

Cc1cc(C(C)(C)C)ccc1O [4-tert-butyl-2-methylphenol]
Concentration: dose at which the compound alone induces ≈30% of the luciferase expression obtained with 3 µM SR12813 (PXR [2]): 1000 nM

CO[C@H]1/C=C/O[C@@]2(C)Oc3c(C)c(O)c4c(O)c(c(/C=N/N5CCN(C)CC5)c(O)c4c3C2=O)NC(=O)/C(C)=C\C=C\[C@H](C)[C@H](O)[C@@H](C)[C@@H](O)[C@@H](C)[C@H](OC(C)=O)[C@@H]1C [Rifampicin, reference compound]
Concentration: dose at which the compound alone induces ≈30% of the luciferase expression obtained with 3 µM SR12813 (PXR [2]): 300 nM

C[C@H]1CCCC(=O)CCC/C=C/c2cc(O)cc(O)c2C(=O)O1 [Zearalenone]
Concentration: dose at which the compound alone induces ≈30% of the luciferase expression obtained with 3 µM SR12813 (PXR [2]): 1000 nM

-zearalanol
Concentration: dose at which the compound alone induces ≈30% of the luciferase expression obtained with 3 µM SR12813 (PXR [2]): 1000 nM

CC(=O)O[C@H]1C(=O)[C@@]2(C)[C@H]([C@H](OC(=O)c3ccccc3)[C@]3(O)C[C@H](OC(=O)[C@H](O)[C@@H](NC(=O)c4ccccc4)c4ccccc4)C(C)=C1C3(C)C)[C@]1(OC(C)=O)CO[C@@H]1C[C@@H]2O [TAXOL, reference compound]
Concentration: dose at which the compound alone induces ≈30% of the luciferase expression obtained with 3 µM SR12813 (PXR [2]): 30 nM

Clc1ccc(C(c2ccc(Cl)cc2)C(Cl)(Cl)Cl)cc1 [4,4’DDT]
Concentration: dose at which the compound alone induces ≈30% of the luciferase expression obtained with 3 µM SR12813 (PXR [2]): 3000 nM

Cc1ccc(/C=C2/C(=O)C3(C)CCC2C3(C)C)cc1 (stereo not shown) [4-methylbenzylidene camphor]
Concentration: dose at which the compound alone induces ≈30% of the luciferase expression obtained with 3 µM SR12813 (PXR [2]): 1000 nM

-zearalenol
Concentration: dose at which the compound alone induces ≈30% of the luciferase expression obtained with 3 µM SR12813 (PXR [2]): 300 nM

CC1(C)C(C=C(Cl)Cl)C1C(=O)OC(C#N)c1cccc(Oc2ccccc2)c1 (stereo not shown) [Cypermethrine]
Concentration: dose at which the compound alone induces ≈30% of the luciferase expression obtained with 3 µM SR12813 (PXR [2]): 3000 nM

N#Cc1nn(-c2c(Cl)cc(C(F)(F)F)cc2Cl)c(N)c1S(=O)(=O)C(F)(F)F [Fipronil sulfone]
Concentration: dose at which the compound alone induces ≈30% of the luciferase expression obtained with 3 µM SR12813 (PXR [2]): 3000 nM

CCCCOC(=O)c1ccccc1C(=O)OCc1ccccc1 [Benzyl butyl phthalate]
Concentration: dose at which the compound alone induces ≈30% of the luciferase expression obtained with 3 µM SR12813 (PXR [2]): 1000 nM

Clc1cnc(Oc2ccc(Oc3ncc(Cl)cc3Cl)cc2)c(Cl)c1 [TCPOBOP, reference compound]
Concentration: dose at which the compound alone induces ≈30% of the luciferase expression obtained with 3 µM SR12813 (PXR [2]): 1000 nM

B1: PXR/RXR LBD heterodimer (complex)
chain 1: SERTGTQPLGVQGLTEEQRMMIRELMDAQMKTFDTTFSHFKNFRLPGVLSSGCELPESLQAPSREEAAKWSQVRKDLCSLKVSLQLRGEDGSVWNYKPPADSGGKEIFSLLPHMADMSTYMFKGIISFAKVISYFRDLPIEDQISLLKGAAFELCQLRFNTVFNAETGTWECGRLSYCLEDTAGGFQQLLLEPMLKFHYMLKKLQLHEEEYVLMQAISLFSPDRPGVLQHRVVDQLQEQFAITLKSYIECNRPQPAHRFLFLKIMAMLTELRSINAQHTQRLLRIQDIHPFATPLMQELFGITGS
chain 2: TSSANEDMPVERILEAELAVEPKTETYVEANMGLNPSSPNDPVTNICQAADKQLFTLVEWAKRIPHFSELPLDDQVILLRAGWNELLIASFSHRSIAVKDGILLATGLHVHRNSAHSAGVGAIFDRVLTELVSKMRDMQMDKTELGCLRAIVLFNPDSKGLSNPAEVEALREKVYASLEAYCKHKYPEQPGRFAKLLLRLPALRSIGLKCLEHLFFFKLIGDTPIDTFLMEMLEAPHQMT
Kd [3]: 272 nM | Kd [4]: 450 nM | Kd [5]: 368 nM | Kd [6]: 93 nM | Kd [7]: 84.5 nM
